According to US6087401A, “Cyclopentenones, process for preparing the same, and the use thereof” (Takara Shuzo Co., Ltd., priority 1996, dated 2000):
Converted amounts (≈) assume the structure as drawn. Where two headings read alike, the source gives them in different places.

How the values were obtained:
[1] = test system: Lactobacillus fructivorans (IFO 13118); experiment: antibacterial activity to hiochi bacteria, microorganism A; type: cell-based; conditions: five days; for Growth Turbidity (OD600): control 0.96
Procedure: (§1) The testing microorganism was subjected to a stationary incubation for five days in an SI medium (Japan Brewery Association) containing 10% of ethanol to give a seed microorganism. The seed microorganism (0.1%) was added to 100 ml of 10% ethanol-containing SI medium to which the cyclopentenone was added in an amount of 0, 25, 50, 75 or 100 μg/ml (in terms of final concentration), then a stationary incubation was conducted for five days and the turbidity was measured. In measuring the turbidity, the value of OD600 was measured using an absorbance meter. A value of OD600 of the medium to which no testing microorganism was inoculated was deducted from the above value and this (growth turbidity) was used for the growth of the tested microorganism.
(§2) The tested microorganisms were as follows. Thus, Lactobacillus fructivorans (IFO 13118) (testing microorganism A), Lactobacillus fructivorans (JCM 1198) (testing microorganism B) and Lactobacillus homohiochii (IFO 13120) (testing microorganism C) as true hiochi bacteria while Lactobacillus rhamnosus (IFO 3532) (testing microorganism D) was used as hiochi lactobacteria.

[2] = stability of the cyclopentenone in solution (TLC)
[3] = test system: HL-60 cells; experiment: apoptosis-inducing activity to HL-60 cells; type: cell-based, human; conditions: Homo sapiens
Procedure: (2) The cyclopentenone prepared in Example 2-(1) was used for preparing aqueous solutions of the cyclopentenone in the concentrations of 2.86 mM, 955 μM, 318 μM, 106 μM, 35 μM, 12 μM and […]. Then said heat-treated substance was adjusted to pH 7.0 with NaOH and the apoptosis-inducing activity to HL-60 cells was measured as follows.
To 1.35 ml of this suspension was added 0.15 ml of the above-mentioned cyclopentenone solution and the mixture was incubated at […] for 20 hours in the presence of 5% of carbon dioxide gas.

[4] = test system: HL-60 cells; experiment: viable HL-60 cell number after incubation; type: cell-based, human; conditions: sixth day
[5] = test system: cancer cells such as HL-60, MOLT-3, A-549, WI-38VA13, Hep G2, HCT 116, SW 480, WiDr, AGS and myeloma cells; experiment: cell growth suppressing, anticancer and apoptosis-inducing action to cancer cells; type: cell-based, human
[6] = test system: Lactobacillus rhamnosus (IFO 3532); experiment: antibacterial activity to hiochi lactobacteria, microorganism D; type: cell-based; conditions: five days; for Growth Turbidity (OD600): control 0.35
Procedure: as §1, §2

[7] = test system: Vibrio parahaemolyticus 4387-61 and Vibrio parahaemolyticus T4144-1; experiment: antibacterial and bactericidal action to Vibrio; type: cell-based
Procedure: (1) Vibrio parahaemolyticus 4387-61 or Vibrio parahaemolyticus T4144-1 (both stored at National Institute of Hygienic Sciences) was inoculated to make 10^6 cells/ml to a trypto-soya bouillon medium (manufactured by Nissui) containing […], 3.13 or 1.56 μg/ml of the cyclopentenone and a stationary incubation was conducted at 37° C. for 24 hours.
The culture (50 μl) where no growth of the microorganism was noted was spread on 20 ml of a trypto-soya bouillon agar medium containing no cyclopentenone and incubation was conducted at 37° C. for 24 hours. The result was that, in any of the strains, no growth of microorganism was noted on the agar medium on which a fraction (to which 50 μg/ml or more cyclopentenone was added) was spread.

[8] = test system: Candida albicans TIMM 0136; experiment: antimicrobial activity to fungi; type: cell-based; conditions: high concentrations
[9] = test system: Staphylococcus aureus 3A (NCTC 8319); experiment: growth turbidity, microorganism (16); type: cell-based; conditions: 8 h, control 243
Text: They were testing microorganism (13): Escherichia coli HB101 (ATCC 33694); testing microorganism (14): Salmonella typhimurium LT-2 (ATCC 27106); testing microorganism (15): Pseudomonas aeruginosa (IFO 3080); testing microorganism (16): Staphylococcus aureus 3A (NCTC 8319); testing microorganism (17): Bacillus subtilis (IFO 3034); and testing microorganism (18): Streptococcus mutans (GS5; stored at National Institute of Health).
The testing microorganisms were subjected to a seed culture overnight in an L-broth (1% tryptone, 0.5% yeast extract and […]; pH 7.0). The seed culture (5 μl) was inoculated to a medium to which 25-200 μg/ml of cyclopentenone was added to 5 ml of L-both and also to a medium to which nothing was added and a shake incubation was conducted at 37° C. to measure the growth. At the initiation of the incubation and also at eight hours thereafter, turbidity of the culture was measured using a Fuji Digital Turbidimeter (sold from Fuji Kogyo KK; manufactured by Akiyama Denki Seisakusho) under the condition that the adjusted scale was 82.3 and the growth of the tested microorganism was measured from the value (growth turbidity) obtained by deducting the turbidity at the initiation of incubation from that after eight hours. Incidentally, in the case of the testing microorganism (18), a brain heart infusion was used instead of L-broth.

[10] = test system: Campylobacter jejuni A3309; experiment: antibacterial action to Campylobacter; type: cell-based; conditions: 37° C., 48 hours, read-out: concentration at which no growth of the microorganism was noted
Procedure: (2) Campylobacter jejuni A3309 (stored at the Institute of Hygienic Sciences) was inoculated to a brain heart infusion medium (manufactured by Difco) containing 2% of calf serum (manufactured by Dainippon Seiyaku) and subjected to a shake preincubation at 37° C. for 16 hours. The culture (50 μl) was spread on 20 ml of 0.5% NaCl-containing Muller-Hinton plate medium (manufactured by BBL) containing 800, 400, 200, 100, 50, 25, 12.5, 6.25, 3.13 or 1.56 μg/ml of cyclopentenone and subjected to a stationary incubation at 37° C. for 48 hours.

[11] = test system: Saccharomyces cerevisiae ATCC 9763; experiment: antimicrobial activity to fungi; type: cell-based; conditions: high concentrations
[12] = 25 days

## O=C1C=CC(O)C1O (centres unmarked) [the cyclopentenone, 4,5-dihydroxy-2-cyclopenten-1-one]
[1]; 25 μg/ml
  Growth Turbidity (OD600): 0.17
[1]; 50 μg/ml
  Growth Turbidity (OD600): 0.02
[1]; 75 μg/ml
  Growth Turbidity (OD600): 0
[1]; Fructilactobacillus fructivorans, IFO13118, 120 h, read-out: concentration completely inhibiting growth
  MIC: 75 µg/mL (≈ 657 µM)
[2]; 25 mM in 10 mM tris (pH 10), room temperature, immediately after dissolution
  stability: rapid decomposition
[2]; in water, 121° C., 30 minutes
  stability: most of the cyclopentenone was left nondecomposed
[3]; HL-60, 20 h, read-out: final concentration at which viable cell numbers and cell viability decreased
  minimal effective concentration: ≥ 10.6 µM
[3]; HL-60, 20 hours, 35 μM solution added, read-out: final concentration at which apoptosis was induced (DNA molecular weight became small, cell shape changed)
  minimal effective concentration: 3.5 µM
[4]; 10 μg/ml
  viable cells: no viable cell was found
[4]; Homo sapiens, HL-60, 0.01 μg/ml, vs control, read-out: cell growth inhibition
  inhibition at 0.01 µg/mL: ~40%
[4]; Homo sapiens, HL-60, 0.1 μg/ml, vs control, read-out: cell growth inhibition
  inhibition at 0.1 µg/mL: ~55%
[4]; Homo sapiens, HL-60, 1 μg/ml, vs control, read-out: cell growth inhibition
  inhibition at 1 µg/mL: ~90%
[5]
  apoptosis-inducing action to cancer cells: apoptosis-inducing action
  cell growth suppressing action and anticancer action: cell growth suppressing action and anticancer action
[6]; 25 μg/ml
  Growth Turbidity (OD600): 0.04
[6]; 50 μg/ml
  Growth Turbidity (OD600): 0.01
[6]; 75 μg/ml
  Growth Turbidity (OD600): 0
[6]; Lacticaseibacillus rhamnosus, IFO3532, 120 h, read-out: concentration completely inhibiting growth
  MIC: 75 µg/mL (≈ 657 µM)
[7]; 37° C., 24 hours, both strains, read-out: concentration showing antibacterial action (no growth)
  MIC: 12.5 µg/mL (≈ 110 µM)
[7]; 24 h, read-out: concentration showing bactericidal action
  MBC: 50 µg/mL (≈ 438 µM)
[8]
  antimicrobial activity: antimicrobial activity at high concentrations
[9]; 25 μg/ml
  Growth Turbidity: 203
[9]; 50 μg/ml
  Growth Turbidity: 158
[9]; 100 μg/ml
  Growth Turbidity: 0
[9]; 200 μg/ml
  Growth Turbidity: 0
[10]
  MIC: ≥ 12.5 µg/mL
[11]
  antimicrobial activity: antimicrobial activity at high concentrations
[12]; 4° C. and -20° C.
  storage stability (amount of the cyclopentenone): almost stable
[12]; 37° C.
  storage stability (amount of the cyclopentenone): some decrease
